{"source": "patent US7754753B2", "about": "“Analgesic and anti-inflammatory compositions containing Cox-2-inhibitors” (Wyeth LLC, priority 2000, dated 2010)", "test_system": "Male Swiss mice", "assay": "acetic acid-induced writhing test (mouse writhing model)", "type": "in vivo", "conditions": "for oral A50 value (antinociceptive dose-response): +30 minutes before acetic acid, 95% confidence limits for ibuprofen 17.57-40.58", "protocol": "A modification of the acetic acid-induced writhing test (as disclosed in Porreca, F., H. I. Mosberg, J. R. Omnaas, T. F. Burks and A. Cowan in Supraspinal and spinal potency of selective opioid agonists in the mouse writhing test (Journal of Pharmacology and Experimental Therapeutics 240: 890-894, 1987)) was conducted. The mouse writhing model as described is commonly used to investigate analgesic efficacy and potential synergism with combinations of drugs.\nMale Swiss mice weighing 25-30 g were obtained from Ace Laboratories. They were each placed in individual rectangular observation boxes and allowed to acclimate for at least 1 hour. A placebo vehicle of 1% Tween 80/water was prepared.\nGroups of 8-10 mice each received the test agent or placebo vehicle (in an amount of 0.25 ml/25 grams of body weight) orally via stomach tube. Those mice that received the placebo vehicle composed the control group. After 20, 30, 40 or 60 minutes, each mouse was injected parenterally with a 0.6% acetic acid solution (0.25 ml/25 g body weight).\nPercent inhibition of writhing was expressed as: (Means writhes in control group)−(Writhes by individual mouse)×100/(Mean writhes in control group)\nA preliminary study was conducted at +30 minutes to establish antinociceptive dose-response curves for ibuprofen (obtained from Sigma Chemical) and celecoxib (manufactured by G.D. Searle & Co. in 200 mg capsules and marketed under the trademark Celebrex®), respectively.\nA second group of mice (n=8-10) received […] of ibuprofen followed immediately by the placebo vehicle. At either +20, +40 or +60 minutes following administration, the animals were injected i.p. with 0.6% acetic acid (0.25 ml/25 g body weight) and run in the writhing test.", "key": {"[1]": {"conditions": "dose 20 mg/kg oral, +30 minutes"}, "[2]": {"conditions": "dose 40 mg/kg oral, +30 minutes"}, "[3]": {"conditions": "dose 80 mg/kg oral, +30 minutes"}}, "data": [{"compound": "CC(C)Cc1ccc(C(C)C(=O)O)cc1", "note": "(stereo not shown) [Ibuprofen, ibuprofen]", "values": [{"measurement": "Mean % inhibition + s.e.m. (writhing)", "setting": "[1]", "result": "38.7 ± 11.2", "unit": "%"}, {"measurement": "Mean % inhibition + s.e.m. (writhing)", "setting": "[2]", "result": "59.4 ± 9.58", "unit": "%"}, {"measurement": "Mean % inhibition + s.e.m. (writhing)", "setting": "[3]", "result": "74.0 ± 4.68", "unit": "%"}, {"measurement": "oral A50 value (antinociceptive dose-response)", "setting": "oral", "result": 29.07, "unit": "mg/kg"}, {"measurement": "Mean % inhibition + s.e.m. (writhing)", "setting": "time 20 min, ibuprofen 29 mg/kg followed immediately by celecoxib 20 mg/kg or placebo vehicle, oral", "result": "36.4 ± 3.2", "unit": "%"}, {"measurement": "Mean % inhibition + s.e.m. (writhing)", "setting": "time 40 min, ibuprofen 29 mg/kg followed immediately by celecoxib 20 mg/kg or placebo vehicle, oral", "result": "14.1 ± 6.2", "unit": "%"}, {"measurement": "Mean % inhibition + s.e.m. (writhing)", "setting": "time 60 min, ibuprofen 29 mg/kg followed immediately by celecoxib 20 mg/kg or placebo vehicle, oral", "result": "27.3 ± 8.2", "unit": "%"}]}, {"compound": "Cc1ccc(-c2cc(C(F)(F)F)nn2-c2ccc(S(N)(=O)=O)cc2)cc1", "note": "[Celecoxib, 4-[5-(4-methylphenyl)-3-(trifluoromethyl)-1H-pyrazol-1-yl]benzenesulfonamide]", "values": [{"measurement": "effect of celecoxib on ibuprofen analgesia in words", "setting": "celecoxib 20 mg/kg given with ibuprofen 29 mg/kg, +20 to +60 min", "result": "potentiated the ibuprofen through faster onset and duration of action"}, {"measurement": "antinociceptive activity in words", "setting": "celecoxib 20 mg/kg oral alone", "result": "essentially inactive"}, {"measurement": "Mean % inhibition + s.e.m. (writhing)", "setting": "[1]", "result": "7.5 ± 3.38", "unit": "%"}, {"measurement": "Mean % inhibition + s.e.m. (writhing)", "setting": "[2]", "result": "21.7 ± 4.17", "unit": "%"}, {"measurement": "Mean % inhibition + s.e.m. (writhing)", "setting": "[3]", "result": "28.3 ± 8.34", "unit": "%"}, {"measurement": "oral A50 value (antinociceptive dose-response)", "setting": "oral", "result": "> 80", "unit": "mg/kg"}]}]}
